Measurements reported in US10730892B2, “Homoallylamines as formaldehyde-responsive triggers” (The Regents of the University of California, priority 2015, dated 2020).
Read-outs that look alike come from different tables or passages of the source.

How the values were obtained:
HEK293TN and NS1 cells [1] = conditions: 1 μM FP1 for 8 min, imaged after 30 min and after 8 hrs
From the text: (§1) For example, semicarbazide-sensitive amine oxidase (SSAO) is primarily localized to the plasma membrane (Andres et al., J. Histochem. Cytochem. 2001, 49:209). Thus, both HEK293TN and NS1 cells were costained with ER-Tracker Green, LysoTracker Green DND-26, and MitoTracker Green FM, fluorescent indicators that are known to selectively stain the endoplasmic reticulum, lysosome, and mitochondria, respectively in almost all cell types (FIG. 17A and FIG. 17B).

HEK293TN cells [2] = conditions: 100 scans at 25% laser power, pinhole 1 airy unit
From the text: as §1

[3] = Fluorescence properties of compounds 3, 4, 5 and FP1 (Table 1); assay type: physicochemical
From the text: Such red-shifted fluorophores are desirable because of low autofluorescence, minimal phototoxicity, and negligible interference from biomolecules when employed in live cell imaging. […] In the presence of FA, a reversible condensation event yielded an iminium intermediate which can undergo a charge-promoted [3,3]-sigmatropic rearrangement-hydrolysis sequence to expel the aryl nitro group and afford a highly fluorescent indole-3-carboxaldehyde product (ΦF=0.11) (Table 1). Of note, the aldehyde is strategically positioned at C3 such that after the reaction cascade, the N1 lone pair electrons can delocalize into the π-system rather than quench fluorescence via an acceptor-excited PeT (a-PeT) pathway. In this regard, silicon rhodol 3, without the carboxaldehyde, is non-fluorescent (Table 1).

[4] = tested on: Neuroscreen-1 (NS1) cells
Procedure: FIG. 12 depicts live-cell imaging of NS1 cells. […] Cells were irradiated with the 633 nm HeNe laser set at 3% power with a pinhole size of 1 airy unit. The emission was collected between 645 and 800 nm. Scale bar represents 20 μm. Pseudo-coloring represents intensity distribution from highest intensity indicated by white to the lowest intensity designated by black.
FIG. 13 depicts quantification of observed fluorescence intensity by confocal imaging in NS1 cells after incubation with 1 mM, 2.5 mM or 5 mM FA for 1 (light grey bars), 2 (dark grey bars) and 3 h (black bars). A Ham's F-12K vehicle was added to control cells which was normalized to 1 (white bars). […] For each condition, a minimum of 5 images were averaged (n>5). Errors represent standard deviation.
FIG. 20 depicts quantification of data obtained from confocal microscopy images acquired by irradiation of NS1 cells treated with a vehicle control, 0.25 mM and 0.5 mM FA at 37° C. for 3 hrs with the 633 nm HeNe laser. […] For each condition, a minimum of 5 images were averaged (n>5). Errors represent standard deviation.
(§2) HEK293TN cells were obtained from Prof. Paul Hergenrother (UIUC, Chemistry) and cultured in phenol-red free Dulbecco's modified eagle medium (DMEM, Corning) supplemented with 10% fetal bovine serum (FBS, Sigma Aldrich), and 1% penicillin/streptomycin (Corning). Neuroscreen-1 cells were obtained from Prof. Kai Zhang (UIUC, Biochemistry) and cultured in Ham's F-12K medium (Sigma Aldrich) supplemented with 15% horse serum (Hyclone), 2.5% fetal bovine serum (FBS, Sigma Aldrich), and 1% penicillin/streptomycin (Corning). Cells were incubated at 37° C. and 5% CO2. One day before imaging, cells were passed and plated on 8-well chambered coverglasses (Lab-Tek) at a density of 40,000 cells per mL (or 20,000 cells per well). Cells would reach 70-80% confluency before imaging. […] Samples of HEK293TN and NS1 cells for flow cytometry were prepared by passaging and seeding each well of a 6-well cluster culture dish (Cyto-One) with 300,000 cells one day before experiments. […] Stained cells were aspirated and serum-free DMEM added. Subsequently, a 10× concentrated FA solution was added to give a final concentration of 1.0 mM. 2.5 mM and 5 mM. After incubation cells with FA, the media was removed and replaced with serum-free DMEM. Finally, cells were trypsinized, pelleted via centrifugation, resuspended in phosphate-buffered saline (PBS) for flow cytometric analysis.
Prior to imaging, cells were allowed to recover in FA-free buffer for 30 min. […] Because FA is a powerful fixative, cell viability assays were performed to determine the cytotoxicity of FA under experimental conditions. A dye exclusion protocol was employed, utilizing trypan blue to selectively stain and distinguish dead cells from those that were viable. […] To further verify that the cell populations under investigation were indeed alive, DAPI, a cell permeable nuclear and chromosome counterstain, was employed to identify intact nuclei (FIG. 16).
as §1

HEK293TN and NS1 cells [5] = conditions: 2 μM FP1, 1 μM tracker, both cell lines
From the text: Scale bar represents 20 μm.
as §1

NS1 cells = conditions: 37° C., 3 hrs
Procedure: (§3) Nuclear magnetic resonance (NMR) spectra were recorded on Varian 400 or 500 MHz spectrometers at 25° C. Chemical shifts are reported in ppm (δ) and are referenced to residual protic peaks. The following abbreviations are used to describe coupling constants: singlet (s), doublet (d), triplet (t), quartet (q), doublet doublet (dd), doublet triplet (dt), doublet quartet (dq), doublet doublet triplet (ddt), multiplet (m), and broad singlet (bs). IR spectra were recorded with a PerkinElmer Spectrum Two infrared (IR) spectrometer. High-resolution mass spectra were acquired with a Waters Q-TOF Ultima ESI mass spectrometer and a Waters Synapt G2-Si ESI/LC-MS mass spectrometer. UV-visible spectra were recorded on a Cary 60 spectrometer. Fluorescence spectra were acquired on a QuantaMaster-400 scanning spectrofluorometer with micro fluorescence quartz cuvettes (Science Outlet). Flow cytometry was performed on a BD Biosciences LSR II (San Jose, Calif., USA), and the data were analyzed as described using FACSDiva software.
as §2

HEK293TN cells [6] = conditions: 5 mM FA, 37° C., 3 hrs
Procedure: as §3, §2

Compound: C=CCC(NCc1ccc([N+](=O)[O-])cc1)c1cn(C)c2cc(C)c(C3=C4C=CC(=O)C=C4[Si](C)(C)c4c3cc3c5c4CCCN5CCC3)cc12 (stereo not shown) [FP1]
- dye efflux: change in fluorescence (HEK293TN and NS1 cells [1]): no statistically significant decrease in fluorescence
- photostability toward repeated irradiation (HEK293TN cells [2]): no decrease in fluorescence
- Φ (quantum efficiency, ΦF) [3]: undetectable levels
- ε [3]: 29000 M⁻¹ cm⁻¹
- λabs [3]: 620 nm
- λem [3]: 649 nm
- fold fluorescence increase (time-lapse imaging) ([4]; NS1, 1 μM FP1, on-stage addition of 1 mM FA at 25° C., 2 hrs): 1.3 fold
- fold increase in fluorescence intensity (confocal) ([4]; NS1, 2 μM FP1, 1 mM FA, 1 hr): 0 fold
- fold increase in fluorescence intensity (confocal) ([4]; NS1, 2 μM FP1, 1 mM FA, 2 hrs): 1.1 fold
- fold increase in fluorescence intensity (confocal) ([4]; NS1, 2 μM FP1, 1 mM FA, 3 hrs): 1.6 fold
- fold increase in fluorescence intensity (confocal) ([4]; NS1, 2 μM FP1, 2.5 mM FA, 1 hr): 1.3 fold
- fold increase in fluorescence intensity (confocal) ([4]; NS1, 2 μM FP1, 2.5 mM FA, 2 hrs): 1.5 fold
- fold increase in fluorescence intensity (confocal) ([4]; NS1, 2 μM FP1, 2.5 mM FA, 3 hrs): 2.0 fold
- fold increase in fluorescence intensity (confocal) ([4]; NS1, 2 μM FP1, 5 mM FA, 1 hr): 1.8 fold
- fold increase in fluorescence intensity (confocal) ([4]; NS1, 2 μM FP1, 5 mM FA, 2 hrs): 2.0 fold
- fluorescence increase (confocal) ([4]; NS1, 0.25 mM FA, 37° C., 3 hrs): 16%
- signal enhancement (confocal) ([4]; NS1, 0.5 mM FA, 37° C., 3 hrs): 38%
- staining pattern (overlay with ER-Tracker Green) (HEK293TN and NS1 cells [5]): stained the cytoplasm, as well as the endoplasmic reticulum
- fluorescence turn-on (flow cytometry) (NS1 cells; NS1, 0.25 mM FA): 42%
- fluorescence turn-on (flow cytometry) (NS1 cells; NS1, 0.5 mM FA): 50%
- fold increase by flow cytometry (NS1 cells; NS1, 5 mM FA): 4.2 fold
- fold turn-on, median APC-A fluorescence intensity (flow cytometry) (HEK293TN cells [6]): ~2.5 fold
